Legend:
Format in all cases: in vivo
[1] = system: Rhizoctonia solani, pathogen of brown patch of turf; assay: Test Example 5: foliage application on turf, brown patch control (with metconazole); details: 10 days after inoculation
Description: Control value=100(A−B)/A “Equation 1”; Generally, the control value expected for the case where the given two kinds of active ingredient compounds are mixed and used for the treatment, the so-called control value expectation is calculated from the following Colby's calculating equation. E=X+Y−(X×Y)/100 “Equation 2”; E: Control value (%) expected for the case in which active ingredient compound A in M ppm, in M g per 100 kg of seeds or in M g per 1 hectare and active ingredient compound B in N ppm, in N g per 100 kg of seeds or in N g per 1 hectare are mixed and used for treatment (hereinbelow referred to as “control value expectation”) “Synergetic effect(%)”=(Actual control value)×100/(Control value expectation) A plastic pot was filled with sandy soil, and turf (Bent grass Penncross) was then disseminated. The turf was allowed to grow in a green house for 20 days. A wettable powder of the compound (1b) and a commercially available metconazole formulation (Caramba (registered trademark) produced by BASF) were respectively diluted with water and then tank-mixed so as to prepare tank-mixed liquids containing the compound (1b) and the metconazole in predetermined concentration. The tank-mixed liquids were subjected to foliage application such that they could be sufficiently adhered to the leaves of the aforementioned turf plants. After completion of the foliage application, the plants were air-dried. Thereafter, bran medium containing mycelium of Rhizoctonia solani, pathogen of brown patch of turf, was sprinkled over the planted area. […] The diameter of infected area on the planted area on which the agents had been sprayed was determined as the incidence of disease at the time of checking and the control value was calculated by the aforementioned Equation 1 based on the incidence of disease determined. […] Besides, in order to calculate the control value, the incidence of disease was also determined in the case in which the plants had not been treated with the agent.

[2] = system: Botrytis cinerea, pathogen of gray mold of cucumber; assay: Test Example 1: foliage application on cucumber, gray mold control (with metconazole); details: 6 days after inoculation
From the text: A plastic pot was filled with sandy soil, and cucumber (Sagamihanjiro) was then disseminated. The cucumber was allowed to grow in a green house for 12 days. A wettable powder of the compound (1b) and a commercially available metconazole formulation (Caramba (registered trademark) produced by BASF) were respectively diluted with water and then tank-mixed so as to prepare tank-mixed liquids containing compound (1b) and metconazole in predetermined concentration. The tank-mixed liquids were subjected to foliage application such that they could be sufficiently adhered to the leaves of the aforementioned cucumber plants. After completion of the foliage application, the plants were air-dried. […] The diameter of infected area on the plants on which the agents had been sprayed was determined as the incidence of disease at the time of checking and the control value was calculated by Equation 1 based on the incidence of disease thus determined.
As a comparison, the respective wettable powders described above were diluted with water in predetermined concentration so as to prepare a compound (1b) liquid and a metconazole liquid respectively and they were subjected to similar disease control test. Besides, in order to calculate the control value, the incidence of disease was also determined in the case in which the plants had not been treated with the agent. […]

[3] = system: Rhizoctonia solani, pathogen of cucumber damping-off; assay: Test Example 2: smear treatment of cucumber seeds, damping-off control (with metconazole); details: metconazole alone 1 g/100 kg-seed, seventh day
Description: Control value=100(A−B)/A “Equation 1”; Generally, the control value expected for the case where the given two kinds of active ingredient compounds are mixed and used for the treatment, the so-called control value expectation is calculated from the following Colby's calculating equation. E=X+Y−(X×Y)/100 “Equation 2”; E: Control value (%) expected for the case in which active ingredient compound A in M ppm, in M g per 100 kg of seeds or in M g per 1 hectare and active ingredient compound B in N ppm, in N g per 100 kg of seeds or in N g per 1 hectare are mixed and used for treatment (hereinbelow referred to as “control value expectation”) “Synergetic effect(%)”=(Actual control value)×100/(Control value expectation) Mixed liquids containing an acetone solution of compound (1b) and an acetone solution of metconazole were prepared. These mixed liquids were used for smear treatment of cucumber (Sagamihanjiro) seeds using a rotary seed treatment machine (seed dresser, produced by Hans-Ulrich Hege GmbH) so as to obtain treated seeds. […] They were allowed to grow in a greenhouse while irrigated and the number of non-budding seeds was checked on the seventh day after the dissemination and the incidence of disease was calculated by Equation 3. The control value was calculated by the aforementioned Equation 1 based on the incidence of disease. […]

[4] = system: Botrytis cinerea, pathogen of gray mold of cucumber; assay: Test Example 3: foliage application on cucumber, gray mold control (with ipconazole); details: 6 days after inoculation
Description: Control value=100(A−B)/A “Equation 1”;
Generally, the control value expected for the case where the given two kinds of active ingredient compounds are mixed and used for the treatment, the so-called control value expectation is calculated from the following Colby's calculating equation. E=X+Y−(X×Y)/100 “Equation 2”; […]
A plastic pot was filled with sandy soil, and cucumber (Sagamihanjiro) was then disseminated. […] The diameter of infected area on the plants on which the agents had been sprayed was determined as the incidence of disease at the time of checking and the control value was calculated by the aforementioned Equation 1 based on the incidence of disease thus determined.
As a comparison, the respective wettable powders described above were diluted with water in predetermined concentration so as to prepare a compound (1b) liquid and an ipconazole liquid respectively and they were subjected to similar disease control test. Besides, in order to calculate the control value, the incidence of disease was also determined in the case in which the plants has not been treated with the agent.

[5] = system: Rhizoctonia solani, pathogen of cucumber damping-off; assay: Test Example 4: smear treatment of cucumber seeds, damping-off control (with ipconazole); details: ipconazole alone 1 g/100 kg-seed, seventh day
Description: Control value=100(A−B)/A “Equation 1”; Generally, the control value expected for the case where the given two kinds of active ingredient compounds are mixed and used for the treatment, the so-called control value expectation is calculated from the following Colby's calculating equation. E=X+Y−(X×Y)/100 “Equation 2”; E: Control value (%) expected for the case in which active ingredient compound A in M ppm, in M g per 100 kg of seeds or in M g per 1 hectare and active ingredient compound B in N ppm, in N g per 100 kg of seeds or in N g per 1 hectare are mixed and used for treatment (hereinbelow referred to as “control value expectation”) “Synergetic effect(%)”=(Actual control value)×100/(Control value expectation) The results are shown in Table 3. […] They were allowed to grow in a greenhouse while irrigated and the number of non-budding seeds was checked on the seventh day after the dissemination and the incidence of disease was calculated by the aforementioned Equation 3. The control value was calculated by the aforementioned Equation 1 based on the incidence of disease. In order to calculate the control value, the incidence of disease was also determined in the case in which the plants had not been treated with the agent. […]

CC1(C)CCC(Cc2ccc(Cl)cc2)C1(O)Cn1cncn1 (stereo not drawn) [Metconazole, metconazole]
Actual control value ([1]; metconazole alone 9.4 g/ha): 63% | Actual control value ([1]; metconazole alone 37.5 g/ha): 63% | Actual control value ([2]; metconazole alone 0.8 ppm): 8% | Actual control value [3]: 39%

CC(C)C1CCC(Cc2ccc(Cl)cc2)C1(O)Cn1cncn1 (stereo not drawn) [Ipconazole, ipconazole]
Actual control value ([4]; ipconazole alone 3.1 ppm): 13% | Actual control value [5]: 30%

CNC(=O)C(OC)c1ccccc1COc1cc(C)ccc1C (racemic) [Compound (1b)]
Actual control value ([1]; compound (1b) alone 600 g/ha): 88% | Actual control value ([4]; compound (1b) alone 0.2 ppm): 8% | Actual control value ([2]; compound (1b) alone 0.2 ppm): 16%

Source: patent US8846566B2, “Composition for controlling plant diseases and method for controlling plant diseases” (Sumitomo Chemical Company, Limited, priority 2008, dated 2014)
